For one series, the system named is B16F10 melanoma cells. Description: Murine melanoma model, inhibition of post-surgical residual melanoma. It counts as in vivo, C57BL/6 mice.
Series [1] deals with B16F10 murine melanoma cells. Particulars: cited from earlier work.
In a further series the test system is mice. As to conditions: cited from earlier work.
Series [2] relates to epidermis and subcutaneous muscle on the backside of mice. The experiment in a line: In vivo tissue compatibility, real-time bioluminescence (luminol) imaging of acute inflammation. As to conditions: five hours post-injection.

The structures appear in SMILES notation.

For `COc1cccc2c1C(=O)c1c(O)c3c(c(O)c1C2=O)C[C@@](O)(C(=O)CO)C[C@@H]3O[C@H]1C[C@H](N)[C@H](O)[C@H](C)O1` [DOX, doxorubicin], in the series on B16F10 melanoma cells (intratumoral syringe injection, single dose 50 μl, n=5, ten days post-inoculation), the “mice with significant growth of the tumors” value is reported as “four out of five mice”. For the same compound, in the series with B16F10 melanoma cells (syringe injection), the local skin lesions entry is “local skin lesions were observed”. For the same compound, the “half maximal inhibitory concentration (IC50)” value in series [1] was “about 0.3 μg/ml”. In addition, the “lethal dose (LD50)” value in the series on mice is “about 192 μg”.
Regarding `CCCCCCCCCCCCCC(=O)O[C@@H]1[C@@H](C)[C@@]2(O)[C@@H](C=C(CO)C[C@]3(O)C(=O)C(C)=C[C@@H]23)[C@@H]2C(C)(C)[C@]12OC(C)=O` [PMA, phorbol 12-myristate 13-acetate], the “acute inflammation at the implemented sites” value in series [2] is given as “acute inflammation appeared”.

The values above are taken from patent US11793982B2, “Drug delivery devices and methods of fabrication and use therefor” (Purdue Research Foundation, priority 2020, dated 2023).
